US20150231236A1, “METHODS FOR TREATING PATIENTS WITH HYPERCHOLESTEROLEMIA THAT IS NOT ADEQUATELY CONTROLLED BY MODERATE-DOSE STATIN THERAPY” (Regeneron Pharmaceuticals, Inc., priority 2014, published 2015)

System: patients with hypercholesterolemia at high CV risk not adequately controlled with rosuvastatin (10 mg or 20 mg)
Test: Example 3: randomized, double-blind trial, lipid efficacy of mAb316P add-on to rosuvastatin vs EZE add-on or rosuvastatin dose doubling
Assay type: in vivo, human
Conditions: for Proportion of Patients Reaching LDL-C goal (%) / LDL-C W24 % change from baseline, LS mean (SE): week 24; for Proportion of Patients Reaching LDL-C goal (%): LDL-C <70 mg/dL very high risk or <100 mg/dL high risk; for LDL-C W24 % change from baseline, LS mean (SE): ITT population, treatment arm as labelled
Description: The present study was a randomized, double-blind, active-comparator, parallel-group study in patients at high CV risk with non-FH or heFH who are not adequately controlled with rosuvastatin (10 mg or 20 mg) with or without other lipid-modifying therapy (LMT) (excluding EZE). The study design is illustrated in FIG. 2. Patients who entered the study were taking either rosuvastatin 10 mg or rosuvastatin 20 mg. The former patients were randomized to 1 of 3 treatment arms (arms 1 to 3); the latter patients were randomized to 1 of 3 treatment arms (arms 4 to 6). The treatment arms are as follows:
(B) a double-blind treatment period of 24 weeks. […] The patient/caregiver administered subsequent injections outside of the clinic according to the dosing schedule. […] The last dose of daily oral study drugs was administered at week 24.
The first injection of study drug was administered at the clinical site, as soon as possible after the patient was randomized into the study. The patient was monitored at the clinical site for at least 30 minutes following the first injection. The patient/caregiver administered subsequent injections outside of the clinic, according to the dosing schedule.
The primary efficacy endpoint was the percent change in calculated LDL-C from baseline to week 24, which is defined as: 100× (calculated LDL-C value at week 24−calculated LDL-C value at baseline)/calculated LDL-C value at baseline. The baseline calculated LDL-C value was the last LDL-C level obtained before the first double-blind study drug injection. The calculated LDL-C at week 24 was the LDL-C level obtained within the week 24 analysis window and during the main efficacy period. The main efficacy period is defined as the time from the first double-blind study drug injection up to 21 days after the last double-blind study drug injection or up to the upper limit of the week 24 analysis window, whichever comes first.
Total-C, HDL-C, TG, ApoB, ApoA-1, and Lp(a) were directly measured by a central laboratory. LDL-C was calculated using the Friedewald formula. […] Non-HDL-C was calculated by subtracting HDL-C from the total-C. Ratio ApoB/ApoA-1 was calculated.
For clarification, the ITT analysis is defined for patients in the ITT population and includes all endpoint assessments in an analysis window, regardless of study treatment dosing status (i.e. includes post-treatment assessments). The on-treatment analysis is defined for patients in the mITT population and includes all endpoint assessments from the first double-blind study drug (capsule or injection, whichever comes first) up to 21 days after the last double-blind study drug injection or 3 days after the last capsule intake, whichever comes first (i.e. includes assessments in the efficacy treatment period).

[1] = Week 4, baseline rosuvastatin 10 mg
[2] = Week 4, baseline rosuvastatin 20 mg
[3] = Week 8, baseline rosuvastatin 10 mg
[4] = Week 8, baseline rosuvastatin 20 mg
[5] = Week 12, baseline rosuvastatin 10 mg
[6] = Week 12, baseline rosuvastatin 20 mg
[7] = Week 16, baseline rosuvastatin 10 mg
[8] = Week 16, baseline rosuvastatin 20 mg
[9] = Week 24, baseline rosuvastatin 10 mg
[10] = Week 24, baseline rosuvastatin 20 mg

CC(C)c1nc(N(C)S(C)(=O)=O)nc(-c2ccc(F)cc2)c1/C=C/[C@@H](O)C[C@@H](O)CC(=O)O [rosuvastatin, reference compound]
Proportion of Patients Reaching LDL-C goal (%) (Baseline Rosuvastatin 10 mg): 45.0% | Proportion of Patients Reaching LDL-C goal (%) (Baseline Rosuvastatin 20 mg): 40.1% | Calculated LDL-C LS mean (SE) Value (Baseline, baseline rosuvastatin 10 mg): 105.9 (5.2) mg/dL | Calculated LDL-C LS mean (SE) Value (Baseline, baseline rosuvastatin 20 mg): 113.7 (6.0) mg/dL | LDL-C W24 % change from baseline, LS mean (SE) (listed as RSV 20): −16.3% | LDL-C W24 % change from baseline, LS mean (SE) (listed as RSV 40): −15.9% | Calculated LDL-C LS mean (SE) Value [1]: 89.1 (3.6) mg/dL | Calculated LDL-C LS mean (SE), % Change from Baseline [1]: −13.1 (3.2) % | Calculated LDL-C LS mean (SE), Change from Baseline [1]: −16.2 (3.6) | Calculated LDL-C LS mean (SE) Value [2]: 92.0 (3.4) mg/dL | Calculated LDL-C LS mean (SE), % Change from Baseline [2]: −20.0 (5.3) % | Calculated LDL-C LS mean (SE), Change from Baseline [2]: −25.1 (3.4) | Calculated LDL-C LS mean (SE) Value [3]: 85.4 (4.3) mg/dL | Calculated LDL-C LS mean (SE), % Change from Baseline [3]: −17.0 (3.8) % | Calculated LDL-C LS mean (SE), Change from Baseline [3]: −19.9 (4.3) | Calculated LDL-C LS mean (SE) Value [4]: 91.9 (4.3) mg/dL | Calculated LDL-C LS mean (SE), % Change from Baseline [4]: −21.2 (5.7) % | Calculated LDL-C LS mean (SE), Change from Baseline [4]: −25.2 (4.3) | Calculated LDL-C LS mean (SE) Value [5]: 85.7 (4.1) mg/dL | Calculated LDL-C LS mean (SE), % Change from Baseline [5]: −17.1 (4.1) % | Calculated LDL-C LS mean (SE), Change from Baseline [5]: −19.6 (4.1) | Calculated LDL-C LS mean (SE) Value [6]: 90.4 (4.3) mg/dL | Calculated LDL-C LS mean (SE), % Change from Baseline [6]: −22.1 (5.3) % | Calculated LDL-C LS mean (SE), Change from Baseline [6]: −26.6 (4.3) | Calculated LDL-C LS mean (SE) Value [7]: 83.6 (4.7) mg/dL | Calculated LDL-C LS mean (SE), % Change from Baseline [7]: −19.3 (4.8) % | Calculated LDL-C LS mean (SE), Change from Baseline [7]: −21.6 (4.7) | Calculated LDL-C LS mean (SE) Value [8]: 93.8 (4.8) mg/dL | Calculated LDL-C LS mean (SE), % Change from Baseline [8]: −18.5 (6.3) % | Calculated LDL-C LS mean (SE), Change from Baseline [8]: −23.3 (4.8) | Calculated LDL-C LS mean (SE) Value [9]: 85.4 (4.3) mg/dL | Calculated LDL-C LS mean (SE), % Change from Baseline [9]: −16.3 (4.1) % | Calculated LDL-C LS mean (SE), Change from Baseline [9]: −19.9 (4.3) | Calculated LDL-C LS mean (SE) Value [10]: 95.5 (5.7) mg/dL | Calculated LDL-C LS mean (SE), % Change from Baseline [10]: −15.9 (7.1) % | Calculated LDL-C LS mean (SE), Change from Baseline [10]: −21.5 (5.7) | proportion of patients who reached LDL-C level of <70 mg/dL (1.81 mmol/L) at Week 24 (baseline rosuvastatin 10 mg regimen): 31.3% | proportion of patients who reached LDL-C level of <70 mg/dL (1.81 mmol/L) at Week 24 (baseline rosuvastatin 20 mg regimen): 29.9%
